Among the data in patent US20240308987A1, “SMALL MOLECULE INHIBITOR AGAINST NASOPHARYNGEAL CARCINOMA, PREPARATION METHOD AND APPLICATION THEREOF” (SHENZHEN BAY LABORATORY, priority 2021, published 2024) are EC50 values, retold here.

The test deals with C666-1 cells. Put plainly: C666-1 Cell Viability Assay (Resazurin cytotoxicity test). The test is classed as cell-based. To be noted: Homo sapiens, C6661, EB virus-positive C666-1 cells, 72 hours treatment, 100-0.78 micromole/L, read-out: Inhibitory Rate. As to the method: In order to evaluate the inhibitory effect of the small molecular compound of the present disclosure on EBNA1 at the cellular level, a cytotoxicity test was performed.
As mentioned in the Background of the present disclosure, nasopharyngeal carcinoma is a kind of disease highly associated with latent infection of EB virus. EB virus in latent state only expresses limited proteins to maintain its genome replication, among which EBNA1 protein is an essential functional protein. Studies have confirmed that inhibition of EBNA1 can reduce the proliferation of the corresponding nasopharyngeal carcinoma cells or kill them. Therefore, EB virus-positive nasopharyngeal carcinoma tumor cells (C666-1 cells) are selected for test to verify the effect of the small molecular compound of the present disclosure.
During testing, 100 microliters of different cell lines were inoculated onto a transparent 96-well plate, and 5×10^3 cells were inoculated in each well for C666-1 cells. After the cells were cultured in an incubator under […] at 37° C. for 24 hours, 10 microliters of compound with a concentration ranging from 1 mmol/L to 7.8 micromol/L were added to each well (8 points, double dilution, the final concentration was 100-0.78 micromole/L), and treated in the incubator under carbon dioxide at 37° C. for 72 hours. Cell viability was assessed using the redox indicator Resazurin. After addition of 10 microliters of 600 micromole/liter Resazurin to each well and incubation at 37° C. for 3 hours. Using a Tecan microplate reader, the fluorescence signals were detected at an […]. A software was used to fit the inhibition curve and calculate half-maximal effect concentration (EC50). The selectivity of compound activity was assessed by comparing the EC50 values of EB virus-positive and EB virus-negative cell lines.
A general note: Alamar Blue is a resazurin reagent that responds to reducing activity.

pEC50: −log10 of the molar value.

With `O=C(Cc1ccc(OC2CN(c3cccc(C(=O)NO)c3-c3ccccc3)C2)cc1)Nc1cccnc1` [Example 40b, N-hydroxy-6-(3-(4-(2-oxo-2-(pyridin-3-ylamino)ethyl)phenoxy)azetidin-1-yl)-[1,1′-biphenyl]-2-carboxamide], the pEC50 was greater than 6.00.
In the case of `O=C(O)c1cccc(N2CC(Oc3ccc(COc4ccccn4)cc3)C2)c1-n1cccc1` [Example 12a, 3-(3-(4-((pyridin-2-yloxy)methyl)phenoxy)azetidin-1-yl)-2-(1H-pyrrol-1-yl) benzoic acid], the pEC50 is less than 4.30.
For the compound `O=C(O)c1cccc(N2CC(Oc3ccc(CNc4cccnc4)cc3)C2)c1-n1cccc1` [Example 23a, 3-(3-(4-((pyridin-3-ylamino)methyl)phenoxy)azetidin-1-yl)-2-(1H-pyrrol-1-yl) benzoic acid], the pEC50 was 4.30 to 5.00.
Regarding `COC(=O)c1cccc(C#Cc2ccc(NC(=O)Cc3cccnc3)cc2)c1-c1ccccc1` [Example 62, methyl 6-((4-(2-(pyridin-3-yl)acetamido)phenyl)ethynyl)-[1,1′-biphenyl]-2-carboxylate], the pEC50 was greater than 6.00.
As for `COC(=O)c1cccc(N2CC(Oc3ccc(Oc4cccnc4)cc3)C2)c1-n1cccc1` [Example 25, methyl 3-(3-(4-(pyridin-3-yloxy)phenoxy)azetidin-1-yl)-2-(1H-pyrrol-1-yl) benzoate], the pEC50 is less than 4.30.
In the case of `COC(=O)c1cccc(N2CC(Oc3ccc(CCc4cccnc4)cc3)C2)c1-n1cccc1` [Example 29, methyl 3-(3-(4-(2-(pyridin-3-yl)ethyl)phenoxy)azetidin-1-yl)-2-(1H-pyrrol-1-yl) benzoate], the pEC50 was less than 4.30.
With `CCOC(=O)c1cccc(N2CC(Oc3ccc(COc4cccnc4)cc3)C2)c1-n1cccc1` [Example 1b, ethyl 3-(3-(4-((pyridin-3-yloxy)methyl)phenoxy)azetidin-1-yl)-2-(1H-pyrrol-1-yl) benzoate] the figure was greater than 6.00; with `O=C(O)c1cccc(N2CC(Oc3ccc(COc4cncnc4)cc3)C2)c1-n1cccc1` [Example 14a, 3-(3-(4-((pyrimidin-5-yloxy)methyl)phenoxy)azetidin-1-yl)-2-(1H-pyrrol-1-yl) benzoic acid], 5.00 to 6.00; with `O=C(NO)c1cccc(N2CC(Oc3ccc(CNc4cccnc4)cc3)C2)c1-n1cccc1` [Example 23b, N-hydroxy-3-(3-(4-((pyridin-3-ylamino)methyl)phenoxy)azetidin-1-yl)-2-(1H-pyrrol-1-yl) benzamide], greater than 6.00.
Take `COC(=O)c1cccc(N2CC(Oc3ccc(NC(=O)Nc4cccnc4)cc3)C2)c1-c1cccc(Cl)c1` [Example 41, methyl 3′-chloro-6-(3-(4-(3-(pyridin-3-yl)ureido)phenoxy)azetidin-1-yl)-[1,1′-biphenyl]-2-carboxylate]: the pEC50 was greater than 6.00.
With `O=C(O)c1cccc(N2CC(Oc3ccc(COc4cccnc4)c(F)c3)C2)c1-n1cccc1` [Example 20a, 3-(3-(3-fluoro-4-((pyridin-3-yloxy)methyl)phenoxy)azetidin-1-yl)-2-(1H-pyrrol-1-yl) benzoic acid] the figure was 4.30 to 5.00; with `O=C(Cc1cccnc1)Nc1ccc(OC2CN(c3cccc(C(=O)O)c3Cl)C2)cc1` [Example 55a, 2-chloro-3-(3-(4-(2-(pyridin-3-yl)acetamido)phenoxy)azetidin-1-yl) benzoic acid], 4.30 to 5.00.
On to `O=C(O)c1cccc(N2CC(Oc3ccc(CCc4cccnc4)cc3)C2)c1-n1cccc1` [Example 29a, 3-(3-(4-(2-(pyridin-3-yl)ethyl)phenoxy)azetidin-1-yl)-2-(1H-pyrrol-1-yl) benzoic acid], for which the pEC50 was less than 4.30.
As for `COC(=O)c1cccc(N2CC(Oc3ccc(NC(=O)Nc4cccnc4)cc3)C2)c1-c1ccccc1` [Example 42, methyl 6-(3-(4-(3-(pyridin-3-yl)ureido)phenoxy)azetidin-1-yl)-[1,1′-biphenyl]-2-carboxylate], the pEC50 was greater than 6.00.
Consider `O=C(O)c1cccc(N2CC(Oc3ccc(COc4ccncc4)cc3)C2)c1-n1cccc1` [Example 8a, 3-(3-(4-((pyridin-4-yloxy)methyl)phenoxy)azetidin-1-yl)-2-(1H-pyrrol-1-yl) benzoic acid], for which the pEC50 is less than 4.30.
With `COC(=O)c1cccc(C#Cc2ccc(NC(=O)Nc3cccnc3)cc2)c1-c1ccccc1` [Example 58, methyl 6-((4-(3-(pyridin-3-yl)ureido)phenyl)ethynyl)-[1,1′-biphenyl]-2-carboxylate] the figure was greater than 6.00; with `COC(=O)c1cccc(C#Cc2ccc(CC(=O)Nc3cccnc3)cc2)c1-c1ccccc1` [Example 60, methyl 6-((4-(2-oxo-2-(pyridin-3-ylamino)ethyl)phenyl)ethynyl)-[1,1′-biphenyl]-2-carboxylate], greater than 6.00.
In the case of `O=C(Nc1ccc(OC2CN(c3cccc(C(=O)O)c3-c3cccc(Cl)c3)C2)cc1)Nc1cccc(C(F)(F)F)c1` [Example 37a, 3′-chloro-6-(3-(4-(3-(3-(trifluoromethyl)phenyl)ureido)phenoxy)azetidin-1-yl)-[1,1′-biphenyl]-2-carboxylic acid], the pEC50 is less than 4.30.
As to `O=C(c1cccc(N2CC(Oc3ccc(COc4cccnc4)cc3)C2)c1-n1cccc1)N1CCCC1` [Example 1f, (3-(3-(4-((pyridin-3-yloxy)methyl)phenoxy)azetidin-1-yl)-2-(1H-pyrrol-1-yl)phenyl)(pyrrolidin-1-yl) methanone], the pEC50 was 5.00 to 6.00.
With `O=C(Cc1cccnc1)Nc1ccc(C#Cc2cccc(C(=O)O)c2-c2ccccc2)cc1` [Example 62a, 6-((4-(2-(pyridin-3-yl)acetamido)phenyl)ethynyl)-[1,1′-biphenyl]-2-carboxylic acid], the pEC50 is greater than 6.00.
As for `COC(=O)c1cccc(N2CC(Oc3ccc(/C=C/c4cccnc4)cc3)C2)c1-n1cccc1` [Example 28, methyl (E)-3-(3-(4-(2-(pyridin-3-yl)vinyl)phenoxy)azetidin-1-yl)-2-(1H-pyrrol-1-yl) benzoate], the pEC50 is less than 4.30.
With `COC(=O)c1cccc(N2CC(Oc3ccc(CC(=O)Nc4cccnc4)cc3)C2)c1-c1ccccc1` [Example 40, methyl 6-(3-(4-(2-oxo-2-(pyridin-3-ylamino)ethyl)phenoxy)azetidin-1-yl)-[1,1′-biphenyl]-2-carboxylate] the figure was greater than 6.00.
With `O=C(NO)c1cccc(N2CC(Oc3ccc(/C=C/c4cccnc4)cc3)C2)c1-n1cccc1` [Example 28b, (E)-N-hydroxy-3-(3-(4-(2-(pyridin-3-yl)vinyl)phenoxy)azetidin-1-yl)-2-(1H-pyrrol-1-yl) benzamide], the pEC50 is greater than 6.00.
In the case of `Cc1cc(OC2CN(c3cccc(C(=O)O)c3-n3cccc3)C2)ccc1COc1cccnc1` [Example 15a, 3-(3-(3-methyl-4-((pyridin-3-yloxy)methyl)phenoxy)azetidin-1-yl)-2-(1H-pyrrol-1-yl) benzoic acid], the pEC50 is 4.30 to 5.00.
Take `O=C(NO)c1cccc(N2CC(Oc3ccc(COc4cccnc4)cc3)C2)c1-n1cccc1` [Example 1c, N-hydroxy-3-(3-(4-((pyridin-3-yloxy)methyl)phenoxy)azetidin-1-yl)-2-(1H-pyrrole-1-yl) benzamide]: the pEC50 was greater than 6.00.
Turning to `CNC(=O)c1cccc(N2CC(Oc3ccc(NC(=O)Nc4cccnc4)cc3)C2)c1-c1ccccc1` [Example 42c, N-methyl-6-(3-(4-(3-(pyridin-3-yl)ureido)phenoxy)azetidin-1-yl)-[1,1′-biphenyl]-2-carboxamide], the pEC50 was greater than 6.00.
Consider `Cc1cc(COc2cccnc2)ccc1OC1CN(c2cccc(C(=O)O)c2-n2cccc2)C1` [Example 16a, 3-(3-(2-methyl-4-((pyridin-3-yloxy)methyl)phenoxy)azetidin-1-yl)-2-(1H-pyrrol-1-yl) benzoic acid], for which the pEC50 was less than 4.30.
With `COC(=O)c1cccc(N2CC(Oc3ccc(COc4cccnc4)c(F)c3)C2)c1-n1cccc1` [Example 20, methyl 3-(3-(3-fluoro-4-((pyridin-3-yloxy)methyl)phenoxy)azetidin-1-yl)-2-(1H-pyrrol-1-yl) benzoate] the figure was 5.00 to 6.00; with `O=C(O)c1cccc(N2CC(Oc3ccc(COc4cccnc4)c(Cl)c3)C2)c1-n1cccc1` [Example 19a, 3-(3-(3-chloro-4-((pyridin-3-yloxy)methyl)phenoxy)azetidin-1-yl)-2-(1H-pyrrol-1-yl) benzoic acid], 4.30 to 5.00; with `O=C(Nc1ccc(C#Cc2cccc(C(=O)NO)c2-c2ccccc2)cc1)Nc1cccnc1` [Example 58b, N-hydroxy-6-((4-(3-(pyridin-3-yl)ureido)phenyl)ethynyl)-[1,1′-biphenyl]-2-carboxamide], greater than 6.00.
Regarding `O=C(NO)c1cccc(N2CC(Oc3ccc(COc4cncnc4)cc3)C2)c1-n1cccc1` [Example 14b, N-hydroxy-3-(3-(4-((pyrimidin-5-yloxy)methyl)phenoxy)azetidin-1-yl)-2-(1H-pyrrol-1-yl) benzamide], the pEC50 was 5.00 to 6.00.
With `O=C(Nc1ccc(OC2CN(c3cccc(C(=O)NO)c3-n3cccc3)C2)cc1)Nc1cccnc1` [Example 34b, N-hydroxy-3-(3-(4-(3-(pyridin-3-yl)ureido)phenoxy)azetidin-1-yl)-2-(1H-pyrrol-1-yl) benzamide], the pEC50 is greater than 6.00.
